Reference: patent publication US10149879B2 (priority 2014, dated 2018)

Tests used:
[1] = tested on: 3T3-L1 cells; test: Cell viability assay in 3T3-L1 cells; details: for Cell viability: 3T3-L1, control 100.00
[2] = tested on: 3T3-L1 cells; test: Anti-oxidant activity in 3T3-L1 cells challenged with H2O2; assay type: cell-based; set-up: Anti-oxidant activity, cells challenged with H2O2: scale not given here; details: for Anti-oxidant activity, cells challenged with H2O2: 3T3-L1; for protection against H2O2 induced cellular oxidative damage: 3T3-L1 cells
From the text: Anti-Oxidant Activity in 3T3-L1 Cells Challenged with H2O2 Berberin and Palmatine
Anti-Oxidant Activity in 3T3-L1 Cells Challenged with H2O2 Berberin and Quercetin

[3] = tested on: βTC6 insulinoma cell; test: Cell viability assay in βTC6 insulinoma cell line; assay type: cell-based; details: βTC6, control 100.00
From the text: Cell Viability Assay in βTC6 Insulinoma Cell Lime Following—

[4] = tested on: L6 cells; test: Anti-oxidant activity in L6 cells challenged with H2O2; assay type: cell-based; set-up: Anti-oxidant activity, cells challenged with H2O2: unit not given here; details: for Anti-oxidant activity, cells challenged with H2O2: L6; for protection against H2O2 induced cellular oxidative damage: L6 cells
From the text: Anti-Oxidant Activity in L6 Cells Challenged with H2O2 Berberin and Palmatine
Anti-Oxidant Activity in L6 Cells Challenged with H2O2—Berberin and Quercetin

[5] = tested on: βTC6 insulinoma cell; test: Anti-oxidant activity in βTC6 insulinoma cell challenged with H2O2; assay type: cell-based; set-up: Anti-oxidant activity, cells challenged with H2O2: unit not given here; details: for Anti-oxidant activity, cells challenged with H2O2: βTC6
From the text: Anti-Oxidant Activity in βTC6 Insulinoma Cell Challenged with H2O2 Berberin and Quercetin—
Anti-Oxidant Activity in βTC6 Insulinoma Cell Challenged with H2O2 Berberin and Palmatine—

[6] = tested on: L6-myotubes; test: Anti-diabetic activity (glucose consumption) in L6-myotubes; assay type: cell-based; set-up: Anti-diabetic activity (glucose consumption): unit not given here; details: for Anti-diabetic activity (glucose consumption): L6-myotubes, control 1.00
[7] = comparison with positive standard

`COc1cc2c(cc1OC)-c1cc3ccc(OC)c(OC)c3c[n+]1CC2` [Palmatine] showed a Cell viability ([1]; 10 pM) of 100.00 ± 0.10, a Cell viability ([1]; 100 pM) of 99.99 ± 0.54 and a Cell viability ([1]; 1 nM) of 99.45 ± 0.48. For the same compound, the Cell viability ([1]; 10 nM) was 98.30 ± 1.80, the Cell viability ([1]; 100 nM) was 98.90 ± 1.06 and the Cell viability ([1]; 1 μM) was 95.15 ± 1.58. The Cell viability ([1]; 10 μM) was 89.26 ± 1.30, the Cell viability ([1]; 100 μM) was 83.10 ± 1.67 and the “toxicity to the cell” value ([1]; 3T3-L1 cells, 1 μM) was “non-toxic”. The “Anti-oxidant activity, cells challenged with H2O2” value (“Anti-oxidant activity … with H2O2” for short) ([2]; Co-incubated, 10 pM, control 50.00) was 54.85 ± 2.20, the “Anti-oxidant activity … with H2O2” value ([2]; Co-incubated, 100 pM, control 50.00) was 57.18 ± 1.20 and the “Anti-oxidant activity … with H2O2” value ([2]; Co-incubated, 1 nM, control 50.00) was 59.87 ± 2.70. For the same compound, the “Anti-oxidant activity … with H2O2” value ([2]; Co-incubated, 10 nM, control 50.00) was 63.00 ± 1.10, the “Anti-oxidant activity … with H2O2” value ([2]; Co-incubated, 100 nM, control 50.00) was 65.75 ± 1.40 and the “Anti-oxidant activity … with H2O2” value ([2]; Pre-incubated, 10 pM, control 50.00) was 53.18 ± 3.25. The “Anti-oxidant activity … with H2O2” value ([2]; Pre-incubated, 100 pM, control 50.00) was 55.13 ± 1.50, the “Anti-oxidant activity … with H2O2” value ([2]; Pre-incubated, 1 nM, control 50.00) was 57.00 ± 1.25 and the “Anti-oxidant activity … with H2O2” value ([2]; Pre-incubated, 10 nM, control 50.00) was 61.40 ± 0.25. For the same compound, the “Anti-oxidant activity … with H2O2” value ([2]; Pre-incubated, 100 nM, control 50.00) was 67.25 ± 2.25, the “protection against H2O2 induced cellular oxidative damage” value (“protection” for short) ([2]; pM-nM doses) was “mild protection” and the Cell viability ([3]; 1 pM) was 97.96 ± 1.10. For the same compound, the Cell viability ([3]; 10 pM) was 97.50 ± 2.05, the Cell viability ([3]; 100 pM) was 96.52 ± 2.70 and the Cell viability ([3]; 1 nM) was 94.80 ± 1.32. For the same compound, the Cell viability ([3]; 10 nM) was 91.66 ± 1.60, the Cell viability ([3]; 100 nM) was 84.45 ± 1.30 and the Cell viability ([3]; 1 μM) was 83.20 ± 1.90. For the same compound, the Cell viability ([3]; 10 μM) was 81.98 ± 1.70, the “Anti-oxidant activity … with H2O2” value ([4]; Co-incubated, 10 pM, control 60.10) was 56.13 ± 6.40 and the “Anti-oxidant activity … with H2O2” value ([4]; Co-incubated, 100 pM, control 60.10) was 60.50 ± 5.50. For the same compound, the “Anti-oxidant activity … with H2O2” value ([4]; Co-incubated, 1 nM, control 60.10) was 63.91 ± 5.04, the “Anti-oxidant activity … with H2O2” value ([4]; Co-incubated, 10 nM, control 60.10) was 67.53 ± 8.12 and the “Anti-oxidant activity … with H2O2” value ([4]; Co-incubated, 100 nM, control 60.10) was 71.70 ± 6.16. The “Anti-oxidant activity … with H2O2” value ([4]; Pre-incubated, 10 pM, control 60.10) was 58.70 ± 4.70, the “Anti-oxidant activity … with H2O2” value ([4]; Pre-incubated, 100 pM, control 60.10) was 63.30 ± 3.16 and the “Anti-oxidant activity … with H2O2” value ([4]; Pre-incubated, 1 nM, control 60.10) was 66.12 ± 5.85. The “Anti-oxidant activity … with H2O2” value ([4]; Pre-incubated, 10 nM, control 60.10) was 66.70 ± 3.12, the “Anti-oxidant activity … with H2O2” value ([4]; Pre-incubated, 100 nM, control 60.10) was 70.00 ± 5.95 and the “protection” value ([4]; pM-nM doses) was “mild protection”. For the same compound, the “Anti-oxidant activity … with H2O2” value ([5]; Co-incubated, 1 pM, control 55.54) was 56.95 ± 3.60, the “Anti-oxidant activity … with H2O2” value ([5]; Co-incubated, 10 pM, control 55.54) was 57.04 ± 2.00 and the “Anti-oxidant activity … with H2O2” value ([5]; Co-incubated, 0.1 nM, control 55.54) was 60.10 ± 1.41. The “Anti-oxidant activity … with H2O2” value ([5]; Co-incubated, 1 nM, control 55.54) was 61.75 ± 2.16, the “Anti-oxidant activity … with H2O2” value ([5]; Co-incubated, 10 nM, control 55.54) was 65.83 ± 0.81 and the “Anti-oxidant activity … with H2O2” value ([5]; Pre-incubated, 1 pM, control 55.54) was 55.32 ± 1.48. For the same compound, the “Anti-oxidant activity … with H2O2” value ([5]; Pre-incubated, 10 pM, control 55.54) was 61.67 ± 2.10, the “Anti-oxidant activity … with H2O2” value ([5]; Pre-incubated, 0.1 nM, control 55.54) was 65.18 ± 1.95 and the “Anti-oxidant activity … with H2O2” value ([5]; Pre-incubated, 1 nM, control 55.54) was 67.05 ± 2.40. For the same compound, the “Anti-oxidant activity … with H2O2” value ([5]; Pre-incubated, 10 nM, control 55.54) was 69.58 ± 2.55, the “anti-oxidant activity” value ([5]; βTC6 cells challenged with hydrogen peroxide) was “potent anti-oxidant activity” and the “protection” value ([5]; βTC6 insulinoma cells) was “Mild Protection”. The “Anti-diabetic activity (glucose consumption)” value (“Anti-diabetic activity” for short) ([6]; 1 nM) was 1.58 ± 0.10, the “Anti-diabetic activity” value ([6]; 5 nM) was 1.78 ± 1.10 and the “Anti-diabetic activity” value ([6]; 25 nM) was 2.12 ± 0.09. For the same compound, the “Anti-diabetic activity” value ([6]; 125 nM) was 2.35 ± 0.12, the “Anti-diabetic activity” value ([6]; 625 nM) was 2.60 ± 0.10 and the “glucose consumption” value ([6]; differentiated L6-myotubes, dose dependent) was “accelerated glucose consumption”.

With `O=c1c(O)c(-c2ccc(O)c(O)c2)oc2cc(O)cc(O)c12` [Quercetin] the “Anti-oxidant activity … with H2O2” value ([2]; Co-incubated, 0.1 pM, control 50.00) was 57.30 ± 1.70, the “Anti-oxidant activity … with H2O2” value ([2]; Co-incubated, 1 pM, control 50.00) was 65.00 ± 2.75 and the “Anti-oxidant activity … with H2O2” value ([2]; Co-incubated, 10 pM, control 50.00 ± 0.40) was 68.01 ± 2.75. For the same compound, the “Anti-oxidant activity … with H2O2” value ([2]; Co-incubated, 100 pM, control 50.00 ± 0.40) was 78.70 ± 3.50, the “Anti-oxidant activity … with H2O2” value ([2]; Co-incubated, 1 nM, control 50.00 ± 0.40) was 88.40 ± 1.90 and the “Anti-oxidant activity … with H2O2” value ([2]; Pre-incubated, 0.1 pM, control 50.00) was 61.00 ± 3.00. For the same compound, the “Anti-oxidant activity … with H2O2” value ([2]; Pre-incubated, 1 pM, control 50.00) was 65.00 ± 1.70, the “Anti-oxidant activity … with H2O2” value ([2]; Pre-incubated, 10 pM, control 50.00 ± 0.40) was 75.15 ± 2.99 and the “Anti-oxidant activity … with H2O2” value ([2]; Pre-incubated, 100 pM, control 50.00 ± 0.40) was 88.60 ± 2.60. For the same compound, the “Anti-oxidant activity … with H2O2” value ([2]; Pre-incubated, 1 nM, control 50.00 ± 0.40) was 94.15 ± 1.70, the “protection” value [2, 7] was “superior even at lower concentration” and the “Anti-oxidant activity … with H2O2” value ([4]; Co-incubated, 0.1 pM, control 61.10) was 57.50 ± 1.80. For the same compound, the “Anti-oxidant activity … with H2O2” value ([4]; Co-incubated, 1 pM, control 61.10) was 65.05 ± 2.80, the “Anti-oxidant activity … with H2O2” value ([4]; Co-incubated, 10 pM, control 61.10) was 70.36 ± 2.96 and the “Anti-oxidant activity … with H2O2” value ([4]; Co-incubated, 100 pM, control 61.10) was 78.18 ± 2.99. For the same compound, the “Anti-oxidant activity … with H2O2” value ([4]; Co-incubated, 1 nM, control 61.10) was 88.64 ± 1.99, the “Anti-oxidant activity … with H2O2” value ([4]; Pre-incubated, 0.1 pM, control 61.10) was 63.60 ± 1.50 and the “Anti-oxidant activity … with H2O2” value ([4]; Pre-incubated, 1 pM, control 61.10) was 68.02 ± 1.40. The “Anti-oxidant activity … with H2O2” value ([4]; Pre-incubated, 10 pM, control 61.10) was 75.12 ± 3.50, the “Anti-oxidant activity … with H2O2” value ([4]; Pre-incubated, 100 pM, control 61.10) was 87.90 ± 1.60 and the “Anti-oxidant activity … with H2O2” value ([4]; Pre-incubated, 1 nM, control 61.10) was 95.15 ± 0.99. For the same compound, the “protection” value [4, 7] was “potent protection”, the “Anti-oxidant activity … with H2O2” value ([5]; Co-incubated, 0.1 pM, control 55.64) was 60.31 ± 2.71 and the “Anti-oxidant activity … with H2O2” value ([5]; Co-incubated, 1 pM, control 55.64) was 67.11 ± 2.71. For the same compound, the “Anti-oxidant activity … with H2O2” value ([5]; Co-incubated, 10 pM, control 55.64) was 70.10 ± 2.30, the “Anti-oxidant activity … with H2O2” value ([5]; Co-incubated, 100 pM, control 55.64) was 80.72 ± 1.20 and the “Anti-oxidant activity … with H2O2” value ([5]; Co-incubated, 1 nM, control 55.64) was 90.44 ± 1.94. The “Anti-oxidant activity … with H2O2” value ([5]; Pre-incubated, 0.1 pM, control 55.64) was 64.00 ± 2.10, the “Anti-oxidant activity … with H2O2” value ([5]; Pre-incubated, 1 pM, control 55.64) was 68.38 ± 1.79 and the “Anti-oxidant activity … with H2O2” value ([5]; Pre-incubated, 10 pM, control 55.64) was 77.51 ± 2.06. The “Anti-oxidant activity … with H2O2” value ([5]; Pre-incubated, 100 pM, control 55.64) was 81.63 ± 1.50 and the “Anti-oxidant activity … with H2O2” value ([5]; Pre-incubated, 1 nM, control 55.64) was 87.59 ± 1.95.

In the case of “Insulin: reference line in the L6-myotubes glucose consumption table”, the “Anti-diabetic activity” value ([6]; Insulin line, concentration not given) is reported as 3.70 ± 0.15.
